According to patent US11958868B2, “Methods of using metal complexes to promote wound healing” (University of Macau, priority 2022, dated 2024):

Tests used:
[1] = target: T1, human recombinant VHL:ElonginB:ElonginC (VBC) complex (Homo sapiens, UniProt P40337); assay: Fluorescence-based protein thermal shift assay (FTS) of VBC; type: binding; conditions: 100 μM
T1 construct: made in house
Description: (§1) HEK293 cells were treated with vehicle DMSO (1% for 2 h), 1a (0.3, 1, 3, 6 and 9 μM for 2 h), VH298 (100 μM for 2 h), MG132 (20 μM for 3 h), or FG-4592 (100 μM for 2 h) before lysis. Cell lysates were collected and incubated with VHL antibody overnight at 4° C. The proteins were immunoprecipitated using agarose beads. The levels of hydroxy-HIF-1α co-precipitated with VHL were detected using a hydroxy-HIF-1α antibody, and then visualized using ECL Western Blotting Detection Reagent (GE Healthcare). (B) Cellular thermal shift assays to monitor cellular target engagement of VHL and HIF-1α. HEK293 cell lysates were treated with 1a (3 μM) at room temperature for 30 min and then heated at different temperature ranging from 48° C. to 68° C. for 5 min. The protein samples were collected and detected by Western blotting using either VHL or PHD2 antibodies. (C) Fluorescence-based protein thermal shift assay of VBC in the presence or absence of VH298 (100 μM) and complex 1a (100 μM). […] Data are expressed as means±SD (n=3 independent experiments for figures a and b, samples for figures c and e), P values were calculated using a two-sided t-test. *P<0.05, **P<0.01 vs. DMSO group.
After incubating HEK293 cell lysates with complex 1a followed by heating to set temperatures, VHL and PHD2 levels in the soluble fraction were quantitated by Western blotting.

[2] = ICP-MS analysis of iridium in skin samples; type: in vivo; conditions: dosed STZ and HFD/STZ mice
PHD2 = target: T2, PHD2 (Homo sapiens, UniProt Q9GZT9); assay: Cellular thermal shift assay (CETSA) in HEK293 cell lysates, PHD2; type: binding; conditions: 3 μM
T2 construct: detected by Western blotting using either VHL or PHD2 antibodies; endogenous in cells; host or cells: HEK293 cell lysate
Description: as §1
After incubating HEK293 cell lysates with complex 1a followed by heating to set temperatures, VHL and PHD2 levels in the soluble fraction were quantitated by Western blotting. […]

[3] = target: T1, human recombinant VHL:ElonginB:ElonginC (VBC) complex; assay: Competitive fluorescence polarization binding assay
[4] = test system: full-thickness skin wounds in high-fat diet-fed, streptozotocin-treated diabetic mice (HFD/STZ); conditions: 1.25 mg/kg i.p. every other day
Description: (§2) The db/db and age-matched wide-type (WT) mice were locally administered with vehicle (0.8% w/v Carbopol 974P NF in distilled water, pH 7.0) and 0.25 mg/mL complex 1a (mixed in 0.8% w/v Carbopol 974P NF in distilled water) every other day for 8 days, respectively (FIG. 4a). […] STZ mice were obtained by a single injection of high-dose streptozotocin (150 mg/kg) (Supplementary FIG. 10a). HFD/STZ mice were generated by 8 weeks high-fat diet feeding, followed by low-dose streptozotocin injection for 7 days (40 mg/kg/day) (Supplementary FIG. 11a). 3 days after streptozotocin injection, STZ or HFD/STZ mice with fasting blood glucose levels between 15 and 28 mmol/L were considered as diabetic mice and used in wound healing experiments. STZ and HFD/STZ mice were intraperitoneally injected with either vehicle (PEG 400: distilled water=6:4, v/v) or 1.25 mg/kg complex 1a every other day for 8 days, respectively.
(§3) In the wound healing experiment, two full-thickness skin lesions were excised in interscapular area of each mouse, and the wound area was monitored every other day.
(§4) Male db/db mice were purchased from the Model Animal Research Center of Nanjing University (Nanjing, China). Male C57BL/6J mice were purchased from the animal facility of Faculty of Health Sciences, University of Macau.

[5] = test system: full-thickness skin wounds in leptin-receptor deficient (db/db) diabetic mice; conditions: 0.25 mg/mL topical every other day
Description: as §2, §3, §4

SMILES: COc1cc[n+]2c3c1ccc1c(OC)cc[n+](c13)[Ir-3]213([c]2ccccc2-c2cccc[n+]21)[c]1ccccc1-c1cccc[n+]13.F[P-](F)(F)(F)(F)F [1a]
- Shift of the melting curve of purified VBC (FTS) [1]: ca. 3.0 °C
- Iridium in skin samples (ICP-MS) [2]: confirmed the presence of iridium in skin samples
- Thermal stabilization of PHD2 (CETSA) (PHD2): no appreciable effect on the thermal stabilization of PHD2
- IC50 ([3]; 125 nM fluorescent peptide and 450 nM VBC, four-parameter logistic equation): 3790 nM
- Kd ([3]; displacement of FAM-DEALAHyp-YIPD from VBC): 2060 nM
- Rate of wound closure, HFD/STZ mice, 4 days ([4]; 4 days post-injury): 62%
- Rate of wound closure, HFD/STZ mice, 8 days ([4]; 8 days post-injury): 82%
- Rate of wound closure, db/db mice, 4 days ([5]; 4 days post-injury): about 28%
- Rate of wound closure, db/db mice, 8 days ([5]; 8 days post-injury): ~40%
